Experimental data: US10913738B2 (BRISTOL-MYERS SQUIBB COMPANY, priority 2017, dated 2021)
Read-outs that look alike come from different tables or passages of the source.

Columns and labels:
[1] = test system: MLKL phosphorylation in HT29-L23 human colorectal adenocarcinoma cells; test: MLKL Phosphorylation High-Content Assay; assay type: cell-based; details: Homo sapiens
In short: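 Cells incubated six hours at 37° C., then phospho-MLKL (S358) immunostained overnight at 4° C. and imaged by high-content microscopy. Phosphorylation quantified as mean circ-ring average intensity ratio; IC50 and Ymax from 4-parameter logistic fits.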

[2] = biological target: T1, His-GST-TVMV-hRIPK1(1-324) (Homo sapiens, UniProt Q13546); test: RIPK1 HTRF Binding Assay
T1 construct: The coding region of human RIPK1(1-324) flanked by NdeI site at 5′ end; made in house; host or cells: Spodoptera frugiperda (Sf9) insect cells, baculovirus
T1 sequence (Q13546 1-324): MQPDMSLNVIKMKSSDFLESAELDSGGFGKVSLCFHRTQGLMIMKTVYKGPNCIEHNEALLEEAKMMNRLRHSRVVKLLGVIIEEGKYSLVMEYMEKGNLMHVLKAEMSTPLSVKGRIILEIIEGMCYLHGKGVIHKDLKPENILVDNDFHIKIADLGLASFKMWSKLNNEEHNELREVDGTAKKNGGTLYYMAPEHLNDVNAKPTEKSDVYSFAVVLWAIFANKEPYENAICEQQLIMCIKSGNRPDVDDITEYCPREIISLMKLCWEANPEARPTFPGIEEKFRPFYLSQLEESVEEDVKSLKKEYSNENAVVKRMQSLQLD

[3] = x marks IC50 class 20-200 nM, read-out: pMLKL cell activity 20-200 nM
[4] = x marks IC50 class <20 nM, read-out: RIPK1 HTRF binding <20 nM
[5] = x marks IC50 class >200 nM, read-out: pMLKL cell activity >200 nM
[6] = x marks IC50 class 20-200 nM, read-out: RIPK1 HTRF binding 20-200 nM
[7] = x marks IC50 class >200 nM, read-out: RIPK1 HTRF binding >200 nM
[8] = x marks IC50 class <20 nM, read-out: pMLKL cell activity <20 nM

Compound	IC50 [1, 3] [nM]	IC50 [2, 4] [nM]	IC50 [2, 6] [nM]	IC50 [1, 8] [nM]	also measured
[2H]C([2H])([2H])Nc1nc2cc(-c3cnc(C)c(C(=O)N[C@H](C)c4cc(OC(F)(F)F)ccc4F)c3)ccn2n1 [Example 375, (R)—N-(1-(2-fluoro-5-(trifluoromethoxy)phenyl)ethyl)-2-methyl-5-(2-((methyl-d3)amino)-[1,2,4]triazolo[1,5-a]pyridin-7-yl)nicotinamide]	20 to 200	< 20			
Cc1cnc(-c2ccn3nc(N)nc3c2)nc1C(=O)NCCC(C)c1ccccc1 (stereo not shown) [Example 411, 2-(2-amino-[1,2,4]triazolo[1,5-a]pyridin-7-yl)-5-methyl-N-(3-phenylbutyl)pyrimidine-4-carboxamide]			20 to 200		IC50 [1, 5]: > 200 nM
[2H]C([2H])([2H])[C@H](NC(=O)c1cc(-c2ccn3nc(N)nc3c2)cnc1OC)c1cc(C(F)(F)F)ccc1F [Example 347, (S)-5-(2-amino-[1,2,4]triazolo[1,5-a]pyridin-7-yl)-N-(1-(2-fluoro-5-(trifluoromethyl)phenyl)ethyl-2,2,2-d3)-2-methoxynicotinamide]	20 to 200		20 to 200		
COc1ncc(-c2ccn3nc(N)nc3c2)cc1C(=O)NC(C)c1ccccc1OC(F)(F)F (single isomer, unassigned) [Example 38-2, 5-{2-Amino-[1,2,4]triazolo[1,5-a]pyridin-7-yl}-2-methoxy-N-{1-[2-(trifluoromethoxy)phenyl]ethyl}pyridine-3-carboxamide]					IC50 [1, 5]: > 200 nM; IC50 [2, 7]: > 200 nM
Cc1cnc(-c2ccn3nc(N)nc3c2)cc1C(=O)NCc1cc(OC(F)(F)F)ccc1F [Example 394, 2-(2-amino-[1,2,4]triazolo[1,5-a]pyridin-7-yl)-N-(2-fluoro-5-(trifluoromethoxy)benzyl)-5-methylisonicotinamide]	20 to 200	< 20			
Cc1ncc(C(=O)NCc2cc(F)cc(F)c2OCC2CC2)cc1-c1ccn2nc(N)nc2c1 [Example 260, 5-{2-amino-[1,2,4]triazolo[1,5-a]pyridin-7-yl}-N-{[2-(cyclopropylmethoxy)-3,5-difluorophenyl]methyl}-6-methylpyridine-3-carboxamide]		< 20		< 20	
COc1ncc(-c2ccn3nc(N)nc3c2)cc1C(=O)NCc1ccccc1OCC1CC1 [Example 81, 5-{2-Amino-[1,2,4]triazolo[1,5-a]pyridin-7-yl}-N-{[2-(cyclopropylmethoxy)phenyl]methyl}-2-methoxypyridine-3-carboxamide]		< 20		< 20	
COc1ncc(-c2ccn3nc(N)nc3c2)cc1C(=O)NCc1ccccc1Oc1ccccc1 [Example 158, 5-{2-amino-[1,2,4]triazolo[1,5-a]pyridin-7-yl}-2-methoxy-N-[(2-phenoxyphenyl)methyl]pyridine-3-carboxamide]		< 20		< 20	
COc1ncc(-c2ccn3nc(N)nc3c2)cc1C(=O)NCc1c(F)cccc1OC1CCC(C)C1 (stereo not shown) [Example 23, 5-{2-Amino-[1,2,4]triazolo[1,5-a]pyridin-7-yl}-N-({2-fluoro-6-[(3-methylcyclopentyl)oxy]phenyl}methyl)-2-methoxypyridine-3-carboxamide]		< 20		< 20	
Cc1ncc(-c2ccn3nc(N)nc3c2)cc1C(=O)N(C)[C@H](C)c1cc(OC(F)(F)F)ccc1F [Example 318, (R)-5-(2-amino-[1,2,4]triazolo[1,5-a]pyridin-7-yl)-N-(1-(2-fluoro-5-(trifluoromethoxy)phenyl)ethyl)-N,2-dimethylnicotinamide]	20 to 200				IC50 [2, 7]: > 200 nM
COc1nc(C)c(-c2ccn3nc(N)nc3c2)cc1C(=O)NCCC(C)c1ccccc1 (stereo not shown) [Example 218, 5-{2-amino-[1,2,4]triazolo[1,5-a]pyridin-7-yl}-2-methoxy-6-methyl-N-(3-phenylbutyl)pyridine-3-carboxamide]		< 20		< 20	
COc1nc(C)c(-c2ccn3nc(N)nc3c2)cc1C(=O)NCc1cc(F)cc(F)c1C(=O)N1CCC(F)(F)C1 [Example 380, 5-(2-amino-[1,2,4]triazolo[1,5-a]pyridin-7-yl)-N-(2-(3,3-difluoropyrrolidine-1-carbonyl)-3,5-difluorobenzyl)-2-methoxy-6-methylnicotinamide]		< 20		< 20	
COc1nc(C)c(-c2ccn3nc(N)nc3c2)cc1C(=O)NCc1cc(F)cc(C(F)(F)F)c1 [Example 196, 5-{2-amino-[1,2,4]triazolo[1,5-a]pyridin-7-yl}-N-{[3-fluoro-5-(trifluoromethyl)phenyl]methyl}-2-methoxy-6-methylpyridine-3-carboxamide]			20 to 200		IC50 [1, 5]: > 200 nM
COc1ncc(-c2ccn3nc(N)nc3c2)cc1C(=O)NC(C)c1cccc(OC(F)(F)F)c1 (single isomer, unassigned) [Example 36-1, 5-{2-Amino-[1,2,4]triazolo[1,5-a]pyridin-7-yl}-2-methoxy-N-{1-[3-(trifluoromethoxy)phenyl]ethyl}pyridine-3-carboxamide]	20 to 200		20 to 200		
COc1ncc(-c2ccn3nc(N)nc3c2)cc1C(=O)NCc1ccccc1OCC1CCCC1 [Example 138, 5-{2-amino-[1,2,4]triazolo[1,5-a]pyridin-7-yl}-N-{[2-(cyclopentylmethoxy)phenyl]methyl}-2-methoxypyridine-3-carboxamide]	20 to 200	< 20			
COc1ncc(-c2ccn3nc(N)nc3c2)cc1C(=O)Nc1cnn(C(C)c2ccc(F)cc2)c1 (single isomer, unassigned) [Example 76-1]		< 20		< 20	
[2H]C([2H])([2H])[C@@H](NC(=O)c1cc(-c2ccn3nc(N)nc3c2)c(C)nc1C)c1cc(C(F)(F)F)ccc1F [Example 289, (R)-5-(2-amino-[1,2,4]triazolo[1,5-a]pyridin-7-yl)-N-(l-(2-fluoro-5-(trifluoromethyl)phenyl)ethyl-2,2,2-d3)-2,6-dimethylnicotinamide]	20 to 200	< 20			
COc1ncc(-c2ccn3nc(N)nc3c2)cc1C(=O)NCc1ccccc1OC(F)(F)C(F)F [Example 150, 5-{2-amino-[1,2,4]triazolo[1,5-a]pyridin-7-yl}-2-methoxy-N-{[2-(1,1,2,2-tetrafluoroethoxy)phenyl]methyl}pyridine-3-carboxamide]	20 to 200	< 20			
Cc1nc(C)c(-c2ccn3nc(N)nc3c2)cc1C(=O)NCc1cccc(OC(F)(F)F)c1 [Example 189, 5-{2-amino-[1,2,4]triazolo[1,5-a]pyridin-7-yl}-2,6-dimethyl-N-{[3-(trifluoromethoxy)phenyl]methyl}pyridine-3-carboxamide]	20 to 200		20 to 200		
Cc1nc(C)c(-c2ccn3nc(N)nc3c2)cc1C(=O)NCCc1cccc(OC(F)(F)F)c1 [Example 175, 5-{2-amino-[1,2,4]triazolo[1,5-a]pyridin-7-yl}-2,6-dimethyl-N-{2-[3-(trifluoromethoxy)phenyl]ethyl}pyridine-3-carboxamide]		< 20		< 20	
COc1nc(C)c(-c2ccn3nc(N)nc3c2)cc1C(=O)NCc1ccccc1OC(C)C [Example 212, 5-{2-amino-[1,2,4]triazolo[1,5-a]pyridin-7-yl}-2-methoxy-6-methyl-N-{[2-(propan-2-yloxy)phenyl]methyl}pyridine-3-carboxamide]		< 20		< 20	
[2H]C([2H])(NC(=O)c1cc(-c2ccn3nc(N)nc3c2)c(C)nc1C)c1cc(C(F)(F)F)ccc1F [Example 288, 5-(2-amino-[1,2,4]triazolo[1,5-a]pyridin-7-yl)-N-((2-fluoro-5-(trifluoromethyl)phenyl)methyl-d2)-2,6-dimethylnicotinamide]	20 to 200	< 20			
CCOc1ncc(-c2ccn3nc(N)nc3c2)cc1C(=O)NCc1ccccc1SCC(F)(F)F [Example 265, 5-{2-amino-[1,2,4]triazolo[1,5-a]pyridin-7-yl}-2-ethoxy-N-({2-[(2,2,2-trifluoroethyl)sulfanyl]phenyl}methyl)pyridine-3-carboxamide]			20 to 200		IC50 [1, 5]: > 200 nM
Cc1ncc(-c2ccn3nc(N)nc3c2)cc1C(=O)NCc1ncccc1OCC1CCC1 [Example 236, 5-{2-amino-[1,2,4]triazolo[1,5-a]pyridin-7-yl}-N-{[3-(cyclobutylmethoxy)pyridin-2-yl]methyl}-2-methypyridine-3-carboxamide]	20 to 200		20 to 200		
COc1ccc(F)c(CNC(=O)c2cc(-c3ccn4nc(N)nc4c3)c(C)nc2OC)c1 [Example 337, 5-(2-amino-[1,2,4]triazolo[1,5-a]pyridin-7-yl)-N-(2-fluoro-5-methoxybenzyl)-2-methoxy-6-methylnicotinamide]			20 to 200		IC50 [1, 5]: > 200 nM
CCc1ncc(-c2ccn3nc(N)nc3c2)cc1C(=O)NCc1ccccc1Sc1ccccc1CO [Example 61, 5-{2-Amino-[1,2,4]triazolo[1,5-a]pyridin-7-yl}-2-ethyl-N-[(2-{[2-(hydroxymethyl)phenyl]sulfanyl}phenyl)methyl]pyridine-3-carboxamide]		< 20		< 20	
